For experiment [1], the target named is T1, PBD1 F559D mutant (Homo sapiens, UniProt P53350, F559D).
T1 construct: constructs expressing PBD1 (residues 345–603) WT (pKM7650), F559D (pKM7878); His; TEV site (N); made in house; host or cells: bacteria (E. coli)
The experiment is described as follows: FP-based binding/inhibition assay, PBD1 F559D. The conditions noted are these: PBD1 F559D at EC85. Here is the method:
(§1) FP assays were carried out essentially as described previously ([35], [36]). FITC-conjugated ligands (15 nM) were mixed with PBDs at their EC85 concentrations. All the samples were analyzed approximately 30 min after reaction in a 384-well format using the SpectraMax Paradigm multimode microplate detection platform (Molecular Devices). Data were analyzed after carrying out at least three independent experiments using GraphPad Prism software version 8.
Fig. S4. Generation of F559 mutants for in vitro and cell-based assays in Fig. 4. (A) SDS-PAGE showing the proteins used for the FP assays in Fig. 4 A and B. CBB, a Coomassie Brilliant Blue– stained gel. (B) Summary of Kd and EC85 values for PBD1 WT and mutants. The Kd values for PBD1 WT and mutants were determined after extrapolating them from the binding curves as the concentration at which 50% of the FITC-Ahx-DPPLHSpTAI-NH2 are PBD1-bound. The EC85 values indicate the effective concentration of 85% of the maximal concentration calculated for each protein. The FP values were obtained 30 minutes after incubation. For the F559K and F559R mutants, we were not able to determine the EC85 values and therefore used 2 µM of these proteins for the assays in Fig. 4B. N.D., not determined. […]

The target of experiment [2] is T2, PBD3 A612F mutant (Homo sapiens, UniProt Q9H4B4, A612F).
T2 construct: MBP-PBD3-His (335–646) (pKM3359) and its A612F (pKM7981); His (C); made in house; host or cells: bacteria (E. coli)
The experiment is described as follows: FP-based inhibition assay, PBD3 A612F. Type of experiment: binding. The conditions noted are these: MBP-PBD3 A612F. On the procedure: as §1
Fig. S3. Sequence alignment showing unique PBD2 S652 and PBD3 A612 residues and FP-based Allopole-A inhibition assays carried out with PBD2 S652F and PBD A612F mutants. (A) Human PBD1 (Uniprot ID: P53350), PBD2 (Uniprot ID: Q9NYY3), and PBD3 (15niport ID:Q9H4B4) sequences were aligned using Clustal Omega. The polo-box cap and L1 loop regions were adjusted based on the structural superposition of PBD1 (PDB ID: 3HIK), PBD2 (PDB_ID: 4RS6), and the AlphaFold model of PBD3 (https://alphafold.ebi.ac.uk). […]
with PBD2 and MBP-PBD3 are working properly under our conditions. […] The Kd values for the indicated proteins were determined after extrapolating them from the binding curves as the […]
concentration at which 50% of FITC-conjugated ligands (FITC-GPMQTSpTPKNG for PBD2 and FITC-GPLATSpTPKNG for PBD3) (5) are protein-bound. The EC85 values indicate the effective concentration of 85% of the maximal concentration calculated for each protein. […]

The subject of experiment [3] is Flag-Plk1 interactions with p-PBIP1, Bub1, BubR1, Cdc25C. The experiment is described as follows: Coimmunoprecipitation, HeLa cells expressing Flag-Plk1. The conditions noted are these: 20 μM for 2 h, nocodazole + okadaic acid. Type of experiment: cell-based. On the procedure:
For coimmunoprecipitation analyses shown in Figs. 1C and 4F, HeLa cells stably expressing PCMV-Flag-Plk1 WT (pKM3863) (Fig. 1C) and its respective F559D mutant (pKM7979) (Fig. 4F) were generated using a lentiviral expression system. Prior to harvest, the cells were treated with 600 nM of nocodazole and 300 nM of okadaic acid (OA) for 16 h and 1.5 h, respectively, to enrich the level of phosphorylated proteins and additionally treated with either control DMSO or 20 μM of Allopole for 2 h. Immunoprecipitation was carried out essentially as described previously ([49]) in TBSN buffer [20 mM Tris–Cl (pH 8.0), 150 mM NaCl, 0.5% NP-40, 5 mM EGTA, 2 mM MgCl2, 1.5 mM EDTA, 2 mM DTT, 20 mM p-nitrophenyl phosphate (PNPP), and protease inhibitor cocktail (Roche)] using anti-Flag antibody (Sigma-Aldrich). Immunoprecipitates were separated by sodium dodecyl sulfate–polyacrylamide gel electrophoresis (SDS-PAGE) and then immunoblotted according to standard procedures using an enhanced chemiluminescence detection system (Thermo Fisher Scientific). The antibodies that were used to detect specific indicated proteins in Fig. 1C are listed in SI Appendix, Table S6.

The subject of experiment [4] is U2OS cells expressing Pendo-mGFP-Plk1 F559D. The experiment is described as follows: MTS proliferation assay, U2OS Plk1 RNAi cells expressing Plk1 F559D. Type of experiment: cell-based. The conditions noted are these: 3 to 6 μM, 36 h. On the procedure: Cell viability was determined using the […] CellTiter 96® AQueous One Solution Cell Proliferation Assay (MTS) kit (Promega) containing a tetrazolium compound [3-(4,5-dimethylthiazol-2-yl)-5-(3-carboxymethoxy-phenyl)-2-(4-sulfophenyl)-2H-tetrazolium, inner salt (MTS)] and an electron-coupling phenazine ethosulfate. For the MTS assays in Fig. 1B, L363 cells cultured in a 96-well plate were treated with the indicated compounds for 48 h (the final volume of 100 μL). After the compound treatment, cells were additionally treated with 20 μL of the MTS solution and incubated at 37 °C for 2 to 4 h in a humidified 5% CO2 atmosphere. The absorbance of the resulting sample was measured at 490 nm using a PerkinElmer EnSpire Multimode 96-well plate reader. For the MTS assays in Fig. 4E, U2OS cells stably expressing either Pendo-mGFP-Plk1 WT or F559D were seeded at approximately 5,000 cells/well in a 96-well plate, depleted of endogenous Plk1 by RNAi, and then treated with either control DMSO or Allopole as indicated in the schematic diagram in SI Appendix, Fig. S4E.

T2 sequence (Q9H4B4 335-646 A612F): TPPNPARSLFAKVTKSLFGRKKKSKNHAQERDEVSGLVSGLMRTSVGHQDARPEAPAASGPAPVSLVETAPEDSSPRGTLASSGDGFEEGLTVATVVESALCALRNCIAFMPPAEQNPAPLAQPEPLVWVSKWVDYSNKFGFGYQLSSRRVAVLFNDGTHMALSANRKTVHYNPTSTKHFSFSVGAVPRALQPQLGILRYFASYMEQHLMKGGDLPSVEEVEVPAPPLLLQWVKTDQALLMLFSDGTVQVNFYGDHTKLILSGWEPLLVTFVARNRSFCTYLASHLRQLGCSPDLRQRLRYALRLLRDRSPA
T1 sequence (P53350 345-603 F559D): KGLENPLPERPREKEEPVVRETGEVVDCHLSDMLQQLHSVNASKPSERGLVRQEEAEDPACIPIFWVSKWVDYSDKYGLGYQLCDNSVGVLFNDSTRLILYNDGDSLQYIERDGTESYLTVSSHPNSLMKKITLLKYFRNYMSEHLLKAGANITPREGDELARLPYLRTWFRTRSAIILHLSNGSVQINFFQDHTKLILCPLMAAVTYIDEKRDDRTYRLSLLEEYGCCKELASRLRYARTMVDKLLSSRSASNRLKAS

For the molecule `O=c1c2sc(Cl)cc2n2c(=S)[nH]nc2n1CC1CC1` [Allopole-A], the “Inhibition of FITC-phosphopeptide binding (in words)” value in experiment [1] is “failed to inhibit”. For the same molecule, the “Inhibition in FP assay (in words)” value in experiment [2] is reported as “not inhibitable”.

For `Cn1cnc([N+](=O)[O-])c1Sc1nnc2n(CC3CC3)c(=O)c3sc(Cl)cc3n12` [Allopole], the “Phosphoproteins coprecipitating with Flag-Plk1 (in words)” value in experiment [3] is recorded as “greatly diminished the amounts of these proteins coprecipitating with Plk1”. The “Proliferation (in words)” value in experiment [4] is listed as “uninhibited proliferation”.

The values are drawn from publication PMC10629583, “Specific inhibition of an anticancer target, polo-like kinase 1, by allosterically dismantling its mechanism of substrate recognition” (Proceedings of the National Academy of Sciences of the …, 2023).
